These results are taken from the supplement of paper PMC10307832.

What all share (assay): relative viability (nuclei count vs DMSO), 5 days (fraction); higher = more cells survive
Compound in assay [1]: C[As](C)SC[C@H](NC(=O)CC[C@H](N)C(=O)O)C(=O)NCC(=O)O [Darinaparsin] + O=C(CCCCCCC(=O)Nc1ccccc1)NO [Vorinostat] (partner 1 µM)
The method, boiled down:
(§1)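 Lung cancer cell lines were seeded in 1536-well plates and dosed by pin tool the next day, with either a single drug or a fixed anchor-drug dose combined with five library-drug doses (not always all listed) spaced in √10 steps. Five days later, one step fixed the cells and stained their nuclei (final 0.05% Triton X-100, 1% formaldehyde, 1 ug/ml Hoechst), and nuclei were counted on 4× images. Relative viability is the nuclei count in treated wells divided by the count in vehicle wells, and each value is the median of duplicate plates.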

Compound in assay [2]: C[As](C)SC[C@H](NC(=O)CC[C@H](N)C(=O)O)C(=O)NCC(=O)O [Darinaparsin] + C[C@]1(O)C[C@@H](c2nc(-c3ccc4ccc(-c5ccccc5)nc4c3)c3c(N)nccn32)C1 [Linsitinib] (partner 1 µM)
Summed up: as §1

Compound in assay [3]: CC1=C(C=C(C=C1)NC(=O)C2=CC(=CC=C2)C(C)(C)C#N)NC3=CC4=C(C=C3)N=CN(C4=O)C [AZ628] + C[C@@H](Oc1cc(-c2cnn(C3CCNCC3)c2)cnc1N)c1c(Cl)ccc(F)c1Cl [Crizotinib] (partner 1 µM)
The method, boiled down:
as §1

Compound in assay [4]: C[As](C)SC[C@H](NC(=O)CC[C@H](N)C(=O)O)C(=O)NCC(=O)O [Darinaparsin] + Nc1ncn([C@H]2C[C@H](O)[C@@H](CO)O2)c(=O)n1 [Decitabine] (partner 2 µM)
The method, boiled down:
as §1

As for LCLC-97TM1, the relative viability in assay [1] (first compound 0.08 µM) is 0.882; in assay [1] (first compound 0.8 µM) it was 0.862; in assay [1] (first compound 2.53 µM) it was 0.744; in assay [1] (first compound 8 µM), 0.895; in assay [2] (first compound 0.08 µM), 0.162; in assay [2] (first compound 0.8 µM), 0.164. Moreover, the relative viability in assay [2] (first compound 2.53 µM) was found to be 0.173; in assay [2] (first compound 8 µM) it was 0.178; in assay [3] (first compound 0.08 µM), 0.741; in assay [3] (first compound 0.253 µM) it was 0.501; in assay [3] (first compound 0.8 µM), 0.352; in assay [3] (first compound 2.53 µM), 0.413. Also, the relative viability was found to be 0.205 in assay [3] (first compound 8 µM); 0.246 in assay [4] (first compound 0.08 µM); 0.252 in assay [4] (first compound 0.8 µM); 0.211 in assay [4] (first compound 2.53 µM); 0.258 in assay [4] (first compound 8 µM).
